From patent publication US5240961A, “Method of treating reduced insulin-like growth factor and bone loss associated with aging” (priority 1992, dated 1993)
Where “and” joins values, the source holds several entries; their conditions need not be identical. Equal entries are not always repeated. Entries after “also recorded” stand apart in the source; their conditions may differ. Where two headings read alike, the source gives them in different places.

Key:
[1] = Serum carnitine at 12 weeks in adult mice fed L-carnitine, acetyl carnitine or γ-butyrobetaine; parameters: species or system mouse (BALB/c male); conditions: mouse, in vivo, po
Protocol: (§1) The present invention is further explained by the following examples which should not be construed by way of limiting the scope of the present invention. In the following examples, serum carnitine levels were determined by the method of R. Parvin et al., Anal. Biochem., vol. 79 (1979) pp. 190-201. Serum IGF-1 concentrations were measured by immunoradiometric assay, for example, by IRMA Kit available from Diagnostic Systems Laboratories, Inc., Webster, Texas. Serum osteocalcin levels were measured according to the method of Grunaberg et al., Meth. Enzymology, vol 107 (1984) 516, and which is embodied in an osteocalcin kit available from Biomedical Technologies, Inc., Stoughton, Mass. All mice used in the animal studies were BALB/c strain which is commercially available.
(§2) Tests were performed to compare the effects on serum osteocalcin of diet supplementation with L-carnitine, its precursor, γ-butyrobetaine (available from Aldrich Chemical Co.) and one of its metabolites, acetylcarnitine (available from Life Science Resources, Milwaukee, Wis. 53223). Twenty adult mice, i.e., three months of age, (BALB/c male mice) were divided into seven groups. Each of the groups was fed diets as indicated hereinbelow for twelve weeks. One group (n=3) was fed a diet with L-carnitine supplementation at a dose of 50 mg/kg of body weight each day, while the second group (n=3) was fed L-carnitine at a daily dose of about 100 mg/kg. The third group (n=2) was fed a diet with acetylcarnitine supplementation at a daily dose of 50 mg/kg, while the fourth group (n=3) was fed a daily dose of 100 mg/kg of this compound. The fifth group (n=2) was fed a daily dose of 50 mg/kg of γ-butyrobetaine supplementation,while the sixth group was fed a daily dose of 100 mg/kg of γ-butyrobetaine. The seventh group (n=4) was fed normal, unsupplemented feed (control). Mouse blood was sampled prior to beginning of the trial (pretreatment), at six weeks, and at the end of the trial (twelve weeks). The samples were evaluated for serum osteocalcin levels at six and twelve weeks. Total carnitine was determined at twelve weeks.

serum osteocalcin = experiment: Comparative effects of L-carnitine, acetyl carnitine and γ-butyrobetaine on serum osteocalcin in adult mice; type: in vivo, mouse (BALB/c male); conditions: for Osteocalcin: actual intake estimated about half
Protocol: as §1, §2

[2] = human beings; cited from earlier work
[3] = test system: children with carnitine deficiency; conditions: carnitine repletion; cited from earlier work
[4] = compared to other vitamin D analogues; cited from earlier work
[5] = prolonged treatment, moderate or high doses; cited from earlier work
body composition = conditions: replacement doses; cited from earlier work
[6] = prolonged treatment, moderate or high doses; cited from earlier work; remark: listed apart in the source

## C[N+](C)(C)CCCC(=O)[O-] [γ-butyrobetaine, 4-trimethylamino butyrate]
[1]; 50 mg/kg/day, Serum carnitine, Free
  concentration at 2016 h: 40.7 µM
[1]; 50 mg/kg/day, Serum carnitine, Total
  concentration at 2016 h: 63.2 µM
[1]; 100 mg/kg/day, Serum carnitine, Free
  concentration at 2016 h: 40.4 µM
[1]; 100 mg/kg/day, Serum carnitine, Total
  concentration at 2016 h: 58.5 µM
Serum osteocalcin; 50 mg/kg/day
  significance of difference in osteocalcin vs control (p, student's t test): < 0.05
Serum osteocalcin; 50 mg/kg/day, 6 wks
  Osteocalcin: 184 ng/mL and 184 ± 6 ng/mL
Serum osteocalcin; 50 mg/kg/day, 12 wks
  Osteocalcin: 173 ng/mL
Serum osteocalcin; 100 mg/kg/day
  significance of difference in osteocalcin vs control (p, student's t test): < .01
Serum osteocalcin; 100 mg/kg/day, 6 wks
  Osteocalcin: 220 ng/mL and 220 ± 75 ng/mL
Serum osteocalcin; 100 mg/kg/day, 12 wks
  Osteocalcin: 122 ng/mL
Serum osteocalcin; adult mice, 50 and 100 mg/kg/day
  effect on osteocalcin: stimulate osteocalcin production in adult mice; also recorded: maintained osteocalcin blood levels; also recorded: at least as effective as, and possibly better than, L-carnitine in increasing osteocalcin levels

## C[N+](C)(C)CC(O)CC(=O)[O-] (stereo not drawn) [carnitine, β-hydroxy-γ-N-trimethylammounium butyrate]
[2]
  serum half-life: about 30 minutes
[3]
  stunted growth: normalizes with carnitine repletion

## C=C1/C(=C\C=C2/CCC[C@]3(C)[C@@H]([C@H](C)/C=C/[C@H](C)C(C)C)CC[C@@H]23)C[C@@H](O)C[C@@H]1O [1α-hydroxy vitamin D2]
[4]
  toxicity: low toxicity

## growth hormone: pituitary growth hormone, now readily available as a biosynthetic product
[5]
  side-effects observed: stimulation of neoplastic growth, acromegaly, amenorrhea, flushing and nausea, "dawn" phenomena (a condition of insulin insufficiency which is very dangerous for diabetics), either hyperglycemia or hypoglycemia in diabetics, and fluid retention
Body composition
  alterations in body composition: can be reversed by replacement doses of the hormone

## IGF-1: insulin-like growth factor 1, produced and released by the liver in response to growth hormone
[6]
  potential side-effects: abdominal bloating, indigestion and nausea, and alteration in cellular insulin receptor sites

## CC(=O)O[C@H](CC(=O)[O-])C[N+](C)(C)C [acetyl L-carnitine, acetylcarnitine, reference compound]
[1]; 50 mg/kg/day, 12 wks, read-out: Serum carnitine, Free
  concentration at 2016 h: 45.6 µM
[1]; 50 mg/kg/day, 12 wks, read-out: Serum carnitine, Total
  concentration at 2016 h: 59.6 µM
[1]; 100 mg/kg/day, 12 wks, read-out: Serum carnitine, Free
  concentration at 2016 h: 52.1 µM
[1]; 100 mg/kg/day, 12 wks, read-out: Serum carnitine, Total
  concentration at 2016 h: 65.1 µM
Serum osteocalcin; 50 mg/kg/day
  significance of difference in osteocalcin vs control (p, student's t test): < 0.01
Serum osteocalcin; 50 mg/kg/day, 6 wks
  Osteocalcin: 70 ng/mL and 70 ± 4 ng/mL
Serum osteocalcin; 50 mg/kg/day, 12 wks
  Osteocalcin: 62 ng/mL
Serum osteocalcin; 100 mg/kg/day, 6 wks
  Osteocalcin: 60 ng/mL and 61 ± 6 ng/mL
Serum osteocalcin; 100 mg/kg/day, 12 wks
  Osteocalcin: 77 ng/mL
